{"source": "patent US20190290726A1", "about": "“PROTEIN POLYMER FUSIONS FOR SUBCUTANEOUS DELIVERY OF SMALL MOLECULES” (University of Southern California, priority 2016, published 2019)", "key": {"[1]": {"system": "MDA-MB-468 breast cancer xenograft", "assay": "In vivo tumor regression study, subcutaneous administration", "conditions": "0.75 mg/kg", "from_the_text": "Since there was no statistical difference in efficacy observed between FSI-Rapa and FAF-Rapa intravenously, Applicants next employed SC route of administration in the same MDA-MB-468 xenograft mouse model (FIGS. 5A-5H). The rationale behind exploring SC route was to distinguish the uptake and bio distribution of different FKBP-ELPs from the site of injection into the systemic circulation. […] SC route further presents a convenient administration method compared to IV route with more clinical relevance and has been FDA approved for monoclonal antibodies and biotherapeutics.\nThe comparative tumor regression study consisted of 5 groups: PBS, Free Rapa, FAF-Rapa, FA-Rapa, and FSI-Rapa at the same maximum tolerated dose of 0.75 mg/kg (n=6-8/group). All treatments were done subcutaneously in the right flank above the hind leg. […] Because of the toxic side effects, mice were thereafter treated with free Rapa in DMSO:EtOH:Cremophore-EL:PBS formulation in 1:1:2:6% v/v ratio. […] However, the mice gradually gained back the lost BW which enabled us to continue the treatment with the Cremophore formulation. To prevent further local discomfort to mice, a different site of injection was chosen each time spanning the entire flank region for free Rapa injections. […] There was no local bruising or scabs observed with any of the FKBP-ELP-Rapa formulations which made the treatment easier and at the same site of injection throughout the study.\nAll animal experiments were conducted as per the guidelines of the American Association of Laboratory Animal Care under an USC approved protocol. MDA-MB-468 cells (American Type Tissue Culture Collection) were cultured at 37° C. with 5% CO2 in Dulbecco's modified Eagle's medium (DMEM)/Ham's F-12 media (Caisson) supplemented with 10% fetal bovine serum. The cells were sent for screening against all major mouse pathogens and human blood borne pathogens (Charles River) prior to implantation. A single injection of MDA-MB-468 cells (1-2×10^6 cells in 100 μL fetal bovine serum free DMEM media) was implanted into the left mammary fat pad of 7-8 weeks old female nude (nu/nu) athymic mice (Harlan, Inc.) Tumors were allowed to grow to a size of ˜50-100 mm^3 and mice were randomized blindly into respective groups before start of treatment. […] BW and tumor size were measured thrice a week on the same day of injections. Tumor size was measured using Vernier calipers and tumor volume was calculated using the following equation:\nwhere a and b represents smaller and bigger length respectively. […] Tumor burden was calculated by determining the trapezoidal area under the growth curve for each mouse by using the following equation: […]"}, "[2]": {"conditions": "cited from earlier work"}}, "note": "“Also recorded” adds a separate entry of the source.", "data": [{"smiles": "CO[C@H]1C[C@@H]2CC[C@@H](C)[C@@](O)(O2)C(=O)C(=O)N2CCCC[C@H]2C(=O)O[C@H]([C@H](C)C[C@@H]2CC[C@@H](O)[C@H](OC)C2)CC(=O)[C@H](C)/C=C(\\C)[C@@H](O)[C@@H](OC)C(=O)[C@H](C)C[C@H](C)/C=C/C=C/C=C/1C", "note": "[Free Rapa, (3S,6R,7E,9R,10R,12R,14S,15E,17E,19E,21S,23S,26R,27R,34aS)-9,10,12,13,14,21,22,23,24,25,26,27,32,33,34,34a-hexadecahydro-9,27-dihydroxy-3-[(1R)-2-[(1S,3R,4R)-4-hydroxy-3-methoxycyclohexyl]-1-methylethyl]-10,21-dimethoxy-6,8,12,14,20,26-hexamethyl-23,27-epoxy-3H-pyrido[2,1-c][1,4]-oxaazacyclohentriacontine-1,5,11,28,29(4H,6H,31H)-pentone]", "values": [{"measurement": "tumor burden compared to PBS group", "setting": "[1]; SC, Tukey post hoc, last day of treatment (day 50)", "result": "statistically significance compared to PBS group; also recorded: significantly lower compared to PBS"}, {"measurement": "Kaplan-Meier survival analysis", "setting": "[1]; SC, endpoint 4 times increase in tumor volume", "result": "better anti-tumor efficacy than other groups"}, {"measurement": "drop in BW", "setting": "[1]; mouse, in vivo, sc", "result": 10, "unit": "%"}, {"measurement": "toxicity, local toxicity at the site of injection", "setting": "[1]; mouse, in vivo, sc", "result": "considerable local toxicity at site of subcutaneous injection"}, {"measurement": "aqueous solubility", "setting": "[2]", "result": "~10", "unit": "µM"}]}]}
